Assays:
Type in all cases: cell-based
[1] = test system: Human dermal fibroblasts from Friedreich's Ataxia patients; assay: Rescue of BSO-stressed FRDA fibroblasts (Calcein AM viability); conditions: FRDA fibroblasts GM04078, BSO stress, read-out: protection against FRDA, EC50
Procedure: (§1) An initial screen was performed to identify compounds effective for the amelioration of redox disorders. Test samples, 4 reference compounds (Idebenone, decylubiquinone, Trolox and α-tocopherol acetate), and solvent controls were tested for their ability to rescue FRDA fibroblasts stressed by addition of L-buthionine-(S,R)-sulfoximine (BSO), as described in Jauslin et al., Hum. Mol. Genet. 11(24):3055 (2002), Jauslin et al., FASEB J. 17:1972-4 (2003), and International Patent Application WO 2004/003565. […] This specific BSO-mediated cell death can be prevented by administration of antioxidants or molecules involved in the antioxidant pathway, such as α-tocopherol, selenium, or small molecule glutathione peroxidase mimetics. However, antioxidants differ in their potency, i.e. the concentration at which they are able to rescue BSO-stressed FRDA fibroblasts.
MEM (a medium enriched in amino acids and vitamins, catalog no. 1-31F24-I) and Medium 199 (M199, catalog no. 1-21F22-I) with Earle's Balanced Salts, without phenol red, were purchased from Bioconcept. Fetal Calf Serum was obtained from PAA Laboratories. Basic fibroblast growth factor and epidermal growth factor were purchased from PeproTech. Penicillin-streptomycin-glutamine mix, L-buthionine (S,R)-sulfoximine, (+)-α-tocopherol acetate, decylubiquinone, and insulin from bovine pancreas were purchased from Sigma. Trolox (6-hydroxy-2,5,7,8-tetramethylchromane-2-carboxylic acid) was obtained from Fluka. Idebenone was obtained from Chemo Iberica. Calcein AM was purchased from Molecular Probes. Cell culture medium was made by combining 125 ml M 199 EBS, 50 ml Fetal Calf Serum, 100 U/ml penicillin, 100 μg/ml streptomycin, 2 mM glutamine, 10 μg/ml insulin, 10 ng/ml EGF, and 10 ng/ml bFGF; MEM EBS was added to make the volume up to 500 ml. A 10 mM BSO solution was prepared by dissolving 444 mg BSO in 200 ml of medium with subsequent filter-sterilization. During the course of the experiments, this solution was stored at +4° C. The cells were obtained from the Coriell Cell Repositories (Camden, N.J.; repository number GM04078) and grown in 10 cm tissue culture plates. Every third day, they were split at a 1:3 ratio.
The test samples were supplied in 1.5 ml glass vials. The compounds were diluted with DMSO, ethanol or PBS to result in a 5 mM stock solution. Once dissolved, they were stored at −20° C. Reference antioxidants (Idebenone, decylubiquinone, α-tocopherol acetate and trolox) were dissolved in DMSO.
(§2) Test samples were screened according to the following protocol: A culture with FRDA fibroblasts was started from a 1 ml vial with approximately 500,000 cells stored in liquid nitrogen. Cells were propagated in 10 cm cell culture dishes by splitting every third day in a ratio of 1:3 until nine plates were available. Once confluent, fibroblasts were harvested. For 54 micro titer plates (96 well-MTP) a total of 14.3 million cells (passage eight) were re-suspended in 480 ml medium, corresponding to 100 μl medium with 3,000 cells/well. The remaining cells were distributed in 10 cm cell culture plates (500,000 cells/plate) for propagation. The plates were incubated overnight at 37° C. in a atmosphere with 95% humidity and 5% CO2 to allow attachment of the cells to the culture plate.
(§3) MTP medium (243 μl) was added to a well of the microtiter plate. The test compounds were unfrozen, and 7.5 μl of a 5 mM stock solution was dissolved in the well containing 243 μl medium, resulting in a 150 μM master solution. Serial dilutions from the master solution were made. The period between the single dilution steps was kept as short as possible (generally less than 1 second).
Plates were kept overnight in the cell culture incubator. The next day, 10 μl of a 10 mM BSO solution were added to the wells, resulting in a 1 mM final BSO concentration. Forty-eight hours later, three plates were examined under a phase-contrast microscope to verify that the cells in the 0% control (wells E1-H1) were clearly dead. […]

[2] = test system: human dermal fibroblasts from LHON patients; assay: Rescue of BSO-stressed fibroblasts from LHON patients; conditions: Fibroblast, LHON fibroblasts GM03858, BSO stress, read-out: protection against LHON, EC50
Procedure: as §1, §2, §3
(§4) Plates were kept overnight in the cell culture incubator. The next day, 10 μl of a 10 mM BSO solution were added to the wells, resulting in a 1 mM final BSO concentration. Forty-eight hours later, three plates were examined under a phase-contrast microscope to verify that the cells in the 0% control (wells E1-H1) were clearly dead. The medium from all plates was discarded, and the remaining liquid was removed by gently tapping the plate inversed onto a paper towel.
(§5) 100 μl of PBS containing 1.2 μM Calcein AM were then added to each well. The plates were incubated for 50-70 minutes at room temperature. After that time the PBS was discarded, the plate gently tapped on a paper towel and fluorescence (excitation/emission wavelengths of 485 nm and 525 nm, respectively) was read on a Gemini fluorescence reader. Data was imported into Microsoft Excel (EXCEL is a registered trademark of Microsoft Corporation for a spreadsheet program) and used to calculate the EC50 concentration for each compound.
Compounds of the invention were screened as described in Example A, but substituting FRDA cells with Leber's Hereditary Optic Neuropathy (LHON) cells obtained from the Coriell Cell Repositories (Camden, N.J.; repository number GM03858). The compounds were tested for their ability to rescue human dermal fibroblasts from LHON patients from oxidative stress.

[3] = test system: human dermal fibroblasts from Parkinson's disease patients; assay: Rescue of BSO-stressed fibroblasts from Parkinson's disease patients; conditions: Fibroblast, PD fibroblasts AG20439, BSO stress, read-out: protection against PD, EC50
Procedure: as §1, §2, §3, §4, §5
Compounds of the invention were screened as described in Example A, but substituting FRDA cells with Parkinson's Disease (PD) cells obtained from the Coriell Cell Repositories (Camden, N.J.; repository number AG20439). The compounds were tested for their ability to rescue human dermal fibroblasts from Parkinson's disease patients from oxidative stress.

[4] = test system: human dermal fibroblasts from Huntington's patients; assay: Rescue of BSO-stressed fibroblasts from Huntington's patients; conditions: Fibroblast, Huntington's fibroblasts GM 04281, BSO stress, read-out: protection against Huntington's, EC50
Procedure: as §1, §2, §3, §4, §5
Compounds of the invention were tested using the screen as described in Example A, but substituting FRDA cells with Huntington's cells obtained from the Coriell Cell Repositories (Camden, N.J.; repository number GM 04281). The compounds were tested for their ability to rescue human dermal fibroblasts from Huntington's patients from oxidative stress.

Measured: EC50

CC1=C(C)C(=O)C(CCC(C)(C)O)=C(CCCc2ccccc2)C1=O [Example 24, 2-(3-Hydroxy-3-methylbutyl)-5,6-dimethyl-3-(3-phenylpropyl)cyclohexa-2,5-diene-1,4-dione]
< 200 nM: all assays above

CC1=C(CCC(C)(C)O)C(=O)C(c2ccc(F)c(F)c2)=C(C)C1=O [Example 5, 2-(3,4-Difluorophenyl)-6-(3-hydroxy-3-methylbutyl)-3,5-dimethylcyclohexa-2,5-diene-1,4-dione]
< 200 nM: all assays above

CC1=C(CCC(C)(C)O)C(=O)C(c2ccc(C(F)(F)F)cc2)=C(C)C1=O [Example 1, 2-(3-Hydroxy-3-methylbutyl)-3,5-dimethyl-6-(4-(trifluoromethyl)phenyl)cyclohexa-2,5-diene-1,4-dione]
< 200 nM: all assays above

CC1=C(C)C(=O)C(c2ccc(C(C)(C)C)cc2)=C(CCC(C)(C)O)C1=O [Example 18, 2-(4-tert-Butylphenyl)-3-(3-hydroxy-3-methylbutyl)-5,6-dimethylcyclohexa-2,5-diene-1,4-dione]
< 200 nM: all assays above

CC1=C(C)C(=O)C(c2ccc(C(F)(F)F)cc2)=C(CCC(C)(C)O)C1=O [Example 11, 2-(3-Hydroxy-3-methylbutyl)-5,6-dimethyl-3-(4-(trifluoromethyl)phenyl)cyclohexa-2,5-diene-1,4-dione]
< 200 nM: all assays above

CC1=C(CCC(C)(C)O)C(=O)C(c2ccc(F)cc2)=C(C)C1=O [Example 6, 2-(4Fluorophenyl)-6-(3-hydroxy-3-methylbutyl)-3,5-dimethylcyclohexa-2,5-diene-1,4-dione]
< 200 nM: all assays above

CC1=C(C)C(=O)C(c2ccc3ccccc3c2)=C(CCC(C)(C)O)C1=O [Example 13, 2-(3-Hydroxy-3-methylbutyl)-5,6-dimethyl-3-(naphthalen-2-yl)cyclohexa-2,5-diene-1,4-dione]
< 200 nM: all assays above

CCc1ccc(C2=C(CCC(C)(C)O)C(=O)C(C)=C(C)C2=O)cc1 [Example 16, 2-(4-Ethylphenyl)-3-(3-hydroxy-3-methylbutyl)-5,6-dimethylcyclohexa-2,5-diene-1,4-dione]
< 200 nM: all assays above

CC1=C(C)C(=O)C(c2cccc(C(F)(F)F)c2)=C(CCC(C)(C)O)C1=O [Example 17, 2-(3-Hydroxy-3-methylbutyl)-5,6-dimethyl-3-(3-(trifluoromethyl)phenyl)cyclohexa-2,5-diene-1,4-dione]
< 200 nM: all assays above

CC1=C(CCC(C)(C)O)C(=O)C(c2ccc3ccccc3c2)=C(C)C1=O [Example 4, 2-(3-Hydroxy-3-methylbutyl)-3,5-dimethyl-6-(naphthalen-2-yl)cyclohexa-2,5-diene-1,4-dione]
< 200 nM: all assays above

COc1ccc(C2=C(C)C(=O)C(C)=C(CCC(C)(C)O)C2=O)cc1 [Example 2, 2-(3-Hydroxy-3-methylbutyl)-6-(4-methoxyphenyl)-3,5-dimethylcyclohexa-2,5-diene-1,4-dione]
< 200 nM: all assays above

CC1=C(C)C(=O)C(c2ccc(Cl)cc2)=C(CCC(C)(C)O)C1=O [Example 15, 2-(4-Chlorophenyl)-3-(3-hydroxy-3-methylbutyl)-5,6-dimethylcyclohexa-2,5-diene-1,4-dione]
< 200 nM: all assays above

CC1=C(C)C(=O)C(c2cccc(F)c2)=C(CCC(C)(C)O)C1=O [Example 20, 2-(3-Fluorophenyl)-3-(3-hydroxy-3-methylbutyl)-5,6-dimethylcyclohexa-2,5-diene-1,4-dione]
< 200 nM: all assays above
